Toxic doses and inconclusive results are not listed. No stated cut-off is given here; in the data, active means T/C of 150% or more; inactive means T/C below 125%.
System: L1210 leukemia ip in BDF1 mice, survival T/C
Assay: NCI In Vivo Anticancer Drug Screen. Data for tumor model L1210 Leukemia (intraperitoneal) in B6D2F1 (BDF1) mice
Details: endpoint: mean survival time, higher = longer survival
Summary of the method: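 Tumor cells were implanted, animals were treated, and survival was followed. The result divides the treated measurement by the vehicle-control measurement.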

[1] = dose: 100.0 mg/kg/injection, schedule: Q01DX009 (ip), vehicle: saline
[2] = dose: 200.0 mg/kg/injection, schedule: Q01DX009 (ip), vehicle: saline
[3] = dose: 400.0 mg/kg/injection, schedule: Q01DX009 (ip), vehicle: saline
[4] = dose: 100.0 mg/kg/injection, schedule: Q04DX003 (ip), vehicle: saline with Tween-80
[5] = dose: 200.0 mg/kg/injection, schedule: Q04DX003 (ip), vehicle: saline with Tween-80
[6] = dose: 400.0 mg/kg/injection, schedule: Q04DX003 (ip), vehicle: saline with Tween-80
[7] = dose: 100.0 mg/kg/injection, schedule: Q01DX001 (ip), vehicle: Klucel (hydroxypropylcellulose) (HPC)
[8] = dose: 400.0 mg/kg/injection, schedule: Q01DX001 (ip), vehicle: Klucel (hydroxypropylcellulose) (HPC)
[9] = dose: 100.0 mg/kg/injection, schedule: Q01DX001 (ip), vehicle: saline
[10] = dose: 100.0 mg/kg/injection, schedule: Q04DX003 (ip), vehicle: saline
[11] = dose: 200.0 mg/kg/injection, schedule: Q01DX001 (ip), vehicle: saline
[12] = dose: 200.0 mg/kg/injection, schedule: Q04DX003 (ip), vehicle: saline
[13] = dose: 400.0 mg/kg/injection, schedule: Q01DX001 (ip), vehicle: saline
[14] = dose: 400.0 mg/kg/injection, schedule: Q04DX003 (ip), vehicle: saline
[15] = dose: 100.0 mg/kg/injection, schedule: Q01DX001 (ip), vehicle: saline with Tween-80
[16] = dose: 200.0 mg/kg/injection, schedule: Q01DX001 (ip), vehicle: saline with Tween-80
[17] = dose: 100.0 mg/kg/injection, schedule: Q04DX002 (ip), vehicle: Klucel (hydroxypropylcellulose) (HPC)
[18] = dose: 200.0 mg/kg/injection, schedule: Q04DX002 (ip), vehicle: Klucel (hydroxypropylcellulose) (HPC)
[19] = dose: 100.0 mg/kg/injection, schedule: Q04DX003 (ip), vehicle: Klucel (hydroxypropylcellulose) (HPC)
[20] = dose: 200.0 mg/kg/injection, schedule: Q04DX003 (ip), vehicle: Klucel (hydroxypropylcellulose) (HPC)
[21] = dose: 400.0 mg/kg/injection, schedule: Q04DX003 (ip), vehicle: Klucel (hydroxypropylcellulose) (HPC)
[22] = dose: 400.0 mg/kg/injection, schedule: Q04DX002 (ip), vehicle: Klucel (hydroxypropylcellulose) (HPC)
[23] = dose: 100.0 mg/kg/injection, schedule: Q01DX009 (ip), vehicle: Klucel (hydroxypropylcellulose) (HPC)
[24] = dose: 200.0 mg/kg/injection, schedule: Q01DX009 (ip), vehicle: Klucel (hydroxypropylcellulose) (HPC)
[25] = dose: 400.0 mg/kg/injection, schedule: Q01DX009 (ip), vehicle: Klucel (hydroxypropylcellulose) (HPC)

Measured: T/C

Cc1cc(OC(=O)c2ccc(N)cc2)ccc1C1=NCC(C)S1 (stereo not drawn)
inactive: dose: 25.0 mg/kg/injection, schedule: Q04DX002 (ip), vehicle: DMSO 89 % of control | dose: 50.0 mg/kg/injection, schedule: Q04DX002 (ip), vehicle: DMSO 92 % of control | dose: 100.0 mg/kg/injection, schedule: Q04DX002 (ip), vehicle: DMSO 100 % of control

Cn1ccc(=O)nc1
inactive: [1] 94 % of control | [2] 103 % of control | [3] 100 % of control

CCCCOC(=O)CSSCC(=O)OCCCC
inactive: [4] 106 % of control | [5] 109 % of control

O=C1NCCCCN1
inactive: [4] 100 % of control | [5] 100 % of control | [6] 101 % of control

CC1(C)NC(=O)C2CC21C (stereo not drawn)
inactive: dose: 100.0 mg/kg/injection, schedule: Q04DX002 (ip), vehicle: saline 91 % of control

OC1CCC2NCCCC2C1 (stereo not drawn)
inactive: dose: 75.0 mg/kg/injection, schedule: Q01DX001 (ip), vehicle: carboxymethylcellulose (CMC) 101 % of control | dose: 150.0 mg/kg/injection, schedule: Q01DX001 (ip), vehicle: carboxymethylcellulose (CMC) 103 % of control

Nc1c(Cl)cc2c(c1Br)C(=O)c1ccccc1C2=O
inactive: [7] 117 % of control | [8] 90 % of control

CC(C(=O)O)C(NC(=O)OCc1ccccc1)C(=O)O (stereo not drawn)
inactive: dose: 100.0 mg/kg/injection, schedule: Q01DX009 (ip), vehicle: other 93 % of control | dose: 100.0 mg/kg/injection, schedule: Q04DX003 (ip), vehicle: other 99 % of control | dose: 200.0 mg/kg/injection, schedule: Q01DX009 (ip), vehicle: other 91 % of control | dose: 200.0 mg/kg/injection, schedule: Q04DX003 (ip), vehicle: other 99 % of control | dose: 400.0 mg/kg/injection, schedule: Q01DX009 (ip), vehicle: other 98 % of control | dose: 400.0 mg/kg/injection, schedule: Q04DX003 (ip), vehicle: other 98 % of control

O=C(NC(c1ccccc1)C(O)c1ccccc1)c1ccc([N+](=O)[O-])cc1 (stereo not drawn)
inactive: dose: 50.0 mg/kg/injection, schedule: Q01DX001 (ip), vehicle: carboxymethylcellulose (CMC) 96 % of control | dose: 100.0 mg/kg/injection, schedule: Q01DX001 (ip), vehicle: carboxymethylcellulose (CMC) 93 % of control | dose: 100.0 mg/kg/injection, schedule: Q04DX003 (ip), vehicle: acetone 109 % of control | dose: 200.0 mg/kg/injection, schedule: Q01DX001 (ip), vehicle: carboxymethylcellulose (CMC) 93 % of control | dose: 200.0 mg/kg/injection, schedule: Q04DX003 (ip), vehicle: acetone 96 % of control | dose: 400.0 mg/kg/injection, schedule: Q01DX001 (ip), vehicle: carboxymethylcellulose (CMC) 87 % of control | dose: 400.0 mg/kg/injection, schedule: Q04DX003 (ip), vehicle: acetone 103 % of control

CCSC(C(O)C(O)C(O)C(O)CO)n1cnc2c(=S)nc[nH]c21 (stereo not drawn)
inactive: [9] 105 % of control | [10] 96 % of control | [11] 105 % of control | [12] 100 % of control | [13] 103 % of control | [14] 96 % of control

CC1(C)CCO/C(=C\C(=O)N2Cc3cc4ccccc4nc3C2)N1
inactive: [7] 88 % of control | dose: 200.0 mg/kg/injection, schedule: Q01DX001 (ip), vehicle: Klucel (hydroxypropylcellulose) (HPC) 86 % of control | [8] 90 % of control

CCCCCCC(CCCCCC)c1ccccc1
inactive: [15] 90 % of control | [16] 93 % of control

C/C(=N/NC(=O)c1ccc(N)cc1)c1ccc(C)cc1
inactive: [17] 110 % of control | [18] 89 % of control

CCCCOCCCO
inactive: [1] 91 % of control | [2] 92 % of control | [3] 95 % of control

O=C(/C=C(/NC1CCCCC1)c1ccccc1)c1ccccc1
inactive: [19] 98 % of control | [20] 102 % of control | [21] 100 % of control

CCOC(=O)c1ccnc2ccc(OC)cc12
inactive: dose: 100.0 mg/kg/injection, schedule: Q04DX002 (ip), vehicle: saline with Tween-80 91 % of control | dose: 200.0 mg/kg/injection, schedule: Q04DX002 (ip), vehicle: saline with Tween-80 100 % of control | dose: 400.0 mg/kg/injection, schedule: Q04DX002 (ip), vehicle: saline with Tween-80 104 % of control

O=[N+]([O-])c1ccc(-n2nccn2)cc1
inactive: dose: 75.0 mg/kg/injection, schedule: Q01DX001 (ip), vehicle: other 100 % of control | dose: 150.0 mg/kg/injection, schedule: Q01DX001 (ip), vehicle: other 107 % of control

COc1ccc(N2C=C(c3ccccc3)CC2=O)cc1
inactive: [17] 94 % of control | [18] 94 % of control | [22] 97 % of control

CC(C)N(CCCO)C(C)C
inactive: dose: 50.0 mg/kg/injection, schedule: Q01DX009 (ip), vehicle: saline 95 % of control | [1] 93 % of control | [4] 95 % of control | [2] 95 % of control | [5] 97 % of control

COc1cccc(NC(=O)NCCN(C)c2ccccc2)c1
inactive: [23] 104 % of control | [24] 88 % of control | [25] 92 % of control

O=c1oc(-c2cc([N+](=O)[O-])ccc2Cl)nc2ccccc12
inactive: [4] 100 % of control | [5] 93 % of control

CCOP(=S)(S)OCC.[Cr]
inactive: dose: 50.0 mg/kg/injection, schedule: Q01DX001 (ip), vehicle: other 98 % of control | dose: 100.0 mg/kg/injection, schedule: Q01DX001 (ip), vehicle: other 98 % of control | dose: 200.0 mg/kg/injection, schedule: Q01DX001 (ip), vehicle: other 102 % of control | dose: 400.0 mg/kg/injection, schedule: Q01DX001 (ip), vehicle: other 96 % of control

O=C(O)COc1ccc(Cl)cc1CCl
inactive: [19] 100 % of control | [20] 98 % of control | [21] 102 % of control

O=C(O)c1cccc(O)c1[N+](=O)[O-]
inactive: [10] 97 % of control | [12] 95 % of control | [14] 97 % of control

CNS(C)(=O)=O
inactive: [9] 108 % of control | [10] 101 % of control | [11] 106 % of control | [12] 104 % of control | [13] 95 % of control | [14] 106 % of control

O=C1c2ccccc2C(=O)N1Cc1ncn[nH]1
inactive: [15] 100 % of control | [16] 96 % of control | dose: 400.0 mg/kg/injection, schedule: Q01DX001 (ip), vehicle: saline with Tween-80 91 % of control

CC(=O)N(Cl)c1ccc(Cl)cc1Cl
inactive: [17] 100 % of control | [18] 98 % of control | [22] 91 % of control

Cc1ccc(Nc2ccc(O)c3c2C(=O)c2ccccc2C3=O)c(Br)c1
inactive: dose: 75.0 mg/kg/injection, schedule: Q01DX001 (ip), vehicle: steriod suspending solution 96 % of control | dose: 150.0 mg/kg/injection, schedule: Q01DX001 (ip), vehicle: steriod suspending solution 100 % of control | dose: 300.0 mg/kg/injection, schedule: Q01DX001 (ip), vehicle: steriod suspending solution 93 % of control

CSc1ccc(NC(=O)SCc2ccccc2)cc1
inactive: [23] 97 % of control | [24] 95 % of control | [25] 95 % of control

CCCCCCOC(=O)CCCCCCCCCCC(=O)CCCCCC
inactive: dose: 50.0 mg/kg/injection, schedule: Q01DX009 (ip), vehicle: Klucel (hydroxypropylcellulose) (HPC) 97 % of control | dose: 50.0 mg/kg/injection, schedule: Q04DX003 (ip), vehicle: saline 101 % of control | [23] 108 % of control | [10] 103 % of control | [24] 92 % of control | [12] 106 % of control

CNC(=S)N/N=C/c1ccc([N+](=O)[O-])s1
inactive: [4] 90 % of control | [5] 90 % of control | [6] 89 % of control
